Measured values taken from PMC11148772, “Inhibition of protein translational machinery in triple-negative breast cancer as a promising therapeutic strategy” (Cell Reports Medicine, 2024).
Residues, ends and D or L forms follow the SMILES beside them. *: point of attachment. Cbz = O=C(OCc1ccccc1)*

Experiments:
[1] = system: TNBC cells (MDA-MB-231, MDA-MB-468, SUM159); experiment: Immunoblot assay of cell lysates; format: cell-based, human; details: MG132 10 μM + SU056 1 μM, 15 h, MDA-MB-231 and MDA-MB-468
YB-1 [2] = target: T1, YB-1 (Homo sapiens, UniProt P67809); experiment: Pulldown assay with biotinylated SU056, MDA-MB-468; format: binding; design: endogenous in cells; details: 2 μM, 2 h
Description: (§1) Protein pulldown assay was performed using biotinylated SU056. MDA-MB-231 and MDA-MB-468 cells were treated with 2 μM biotinylated SU056 for 2 h. After 2 h of treatment, cells were collected and lysed using M-PER lysis solution (Thermo Scientific, #78503), supplemented with Halt protease and phosphatase inhibitor cocktail (Thermo Scientific, #78440). Protein lysate from Biotinylated SU056 treated cells were treated with RNase (10 μg/mL) for 15 min at 37°C. 600 μg protein was incubated with magnetic conjugate streptavidin bead (CST, #5947) at room temperature on rocker for 30 min. Biotin-streptavidin conjugates were pulled down and washed using a magnetic rack. After three washes, beads were resuspended in 2X SDS sample buffer followed by heating at 90°C–100°C for 5 min. Samples were resolved and probed with anti-YB-1 and anti-RPL11 antibodies as described in immunoblotting. Samples of protein lysates from MDA-MB-231 and MDA-MB-468 without biotinylated SU056 (input), samples from pulldown using only biotin and only streptavidin beads were used as experimental controls.

YB-1 [3] = target: T1, YB-1; experiment: Pulldown assay with biotinylated SU056, MDA-MB-231; format: binding; design: endogenous in cells; host or cells: MDA-MB-231; details: 2 μM, 2 h
Description: as §1

Structure (SMILES): CC(C)C[C@@H](C=O)NC(=O)[C@H](CC(C)C)NC(=O)[C@H](CC(C)C)NC(=O)OCc1ccccc1 [MG132, reference compound] (Cbz-Leu-Leu-Leu-aldehyde)
- effect on SU056-induced decrease in levels of YB-1 and RPL11 [1]: partially reversed

Structure (SMILES): O=C(CCCC[C@@H]1SC[C@@H]2NC(=O)N[C@@H]21)NCCSSCCC(=O)OCCN1C2=C(C(=O)OC2)C(c2cccc(F)c2)c2cc3c(cc21)OCO3 (stereo partly drawn) [biotinylated SU056, 2-(9-(3-fluorophenyl)-8-oxo-6,9-dihydro-[1,3]dioxolo[4,5-g]furo[3,4-b]quinolin-5(8H)-yl)ethyl 3-((2-(5-((3aS,4S,6aR)-2-oxohexahydro-1H-thieno[3,4-day]imidazol-4-yl)pentanamido)ethyl)disulfaneyl)propanoate]
- interaction with YB-1 (pull-down) (YB-1 [2]): physically interacts
- increase of interaction with YB-1 in RNase-treated protein lysates (YB-1 [2]; RNase 10 μg/mL): 18.76 fold
- interaction with YB-1 (pull-down) (YB-1 [3]): physically interacts
- increase of interaction with YB-1 in RNase-treated protein lysates (YB-1 [3]; RNase 10 μg/mL): 3.13 fold
